Patent US11274103B2, “Compounds for the modulation of MYC activity” (Syros Pharmaceuticals, Inc., priority 2016, dated 2022)
Structures can show the parent of a compound that is named as a salt.

Molecular target: T1, c-Myc/Max/Ebox DNA (Homo sapiens, UniProt P01106)
T1 construct: his6 (cleaved yes)
Assay: c-Myc/Max/Ebox DNA AlphaScreen Assay
Assay type: binding
Conditions: calculated IC50; free c-Myc 20 nM, his6-Max 5 nM, biotinylated Ebox oligo 10 nM; 2 hour incubation
Procedure: Compounds of the invention were assayed for c-Myc/Max/EBox activity as described in the following protocol. Human his6-c-Myc and his6-Max were used with biotinylated DNA containing a single Ebox sequence (biotin[…] (SEQ ID NO: 1)) purchased from MWG Operon. Free c-Myc was generated from his6-c-Myc through thrombin cleavage of the his6 tag (SEQ ID NO: 2). For 384-well plate assays, 10 μL of a 2× solution of free c-Myc (20 nM final), Ni^2+ coated Acceptor Beads (25 μg/ml final), and biotinylated Ebox oligo (10 nM final) were added to 384-well plates with a Biotek EL406 liquid handler. 50 nL of compounds from stock plates were added by pin transfer using a Janus Workstation (PerkinElmer), allowing the compounds to interact with c-Myc prior to c-Myc binding with Max. In the current assay, DMSO was not allowed to exceed 2% v/v of the assay. 10 μl of 2× master mix containing streptavidin-coated donor beads (25 μg/ml final) and his6-Max (5 nM) were added. AlphaScreen measurements were performed on an Envision plate reader (PerkinElmer) utilizing the manufacturer's protocol.
Both master mixes were made in room temperature assay buffer (50 mM HEPES, 150 mM NaCl, 0.2% w/v BSA, 0.02% w/v Tween20, 40 μg/ml glycogen, 500 μM DTT, pH 8.0, wherein both DTT and glycogen were added fresh). Alpha beads were added to respective master solutions. All subsequent steps were performed in low light conditions. Solution 1: 2× solution of components with final concentrations of c-Myc Ni-coated Acceptor Beads (25 μg/ml), and biotinylated Ebox oligo (10 nM). Solution 2: 2× solution of streptavidin-coated donor beads (25 μg/ml final) and his6-Max 10 μL. Solution 1 was added to 384-well plate (AlphaPlate-384, PerkinElmer) with Biotek EL406 liquid handler and the plates were centrifuged very briefly. 50 nL of compounds from stock plates were added by pin transfer using a Janus Workstation. Solution 2 (10 μL) was added with the liquid handler. Plates were sealed with foil to block light exposure and prevent evaporation. Plates were very briefly centrifuged followed by 2 hour incubation. AlphaScreen measurements were performed on an Envision 2104 utilizing the manufacturer's protocol. Excitation was at 680 nm for donor bead release of singlet oxygen and emission was read with a bandpass filter from 520-620 nm. Glycogen: Roche Diagnostics #10901393001. Plate 1536: Perkin Elmer, 6004350. Plate 384: Perkin Elmer, 6005350. Nickel-His Alpha Beads: 6760619R. The data from this assay are summarized in Table 2 below (Myc/Max/DNA Activity), where “A” represents a calculated IC50 of less than 500 nM; “B” represents a calculated IC50 of between 500 nM and 5 μM; “C” represents a calculated IC50 of between 5 μM and 10 μM; “D” represents a value of greater than 10 μM, and “NT” represents a compound for which an assay result was not obtained.

T1 sequence (P01106 whole entry): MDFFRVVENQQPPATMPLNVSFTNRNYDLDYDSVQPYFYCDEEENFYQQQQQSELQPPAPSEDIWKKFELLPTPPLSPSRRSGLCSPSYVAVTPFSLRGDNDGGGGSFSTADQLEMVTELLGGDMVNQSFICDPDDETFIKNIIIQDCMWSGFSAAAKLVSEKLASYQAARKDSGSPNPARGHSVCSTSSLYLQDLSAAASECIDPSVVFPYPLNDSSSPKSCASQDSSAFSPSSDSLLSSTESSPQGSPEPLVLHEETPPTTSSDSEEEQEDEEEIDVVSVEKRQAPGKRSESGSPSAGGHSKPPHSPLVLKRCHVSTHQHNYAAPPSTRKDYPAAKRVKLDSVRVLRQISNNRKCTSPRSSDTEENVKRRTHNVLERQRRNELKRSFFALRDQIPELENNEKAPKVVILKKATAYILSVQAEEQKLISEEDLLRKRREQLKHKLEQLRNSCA

Row | Structure (SMILES) | IC50 [nM]
1 | CC(=O)Nc1sc2c(c1-c1nc(-c3ccccc3)cs1)CCNC2 [Compound 100, N-(3-(4-phenylthiazol-2-yl)-4,5,6,7-tetrahydrothieno[2,3-c]pyridin-2-yl)acetamide] | > 10000
2 | CC(C)NCCC(=O)Nc1sc2c(c1-c1nc(C(=O)O)cs1)CCNC2 [Compound 101, 2-(2-(3-(isopropylamino)propanamido)-4,5,6,7-tetrahydrothieno[2,3-c]pyridin-3-yl)thiazole-4-carboxylic acid] | 500 to 5000
3 | CC(C)NCCC(=O)Nc1sc2c(c1-c1nc(-c3cccnc3)cs1)CCNC2 [Compound 103] | < 500
4 | CC(C)NCCC(=O)Nc1sc2c(c1-c1nc(-c3ccccn3)cs1)CCNC2 [Compound 104, 3-(Isopropylamino)-N-(3-(4-(pyridin-2-yl)thiazol-2-yl)-4,5,6,7-tetrahydrothieno[2,3-c]pyridin-2-yl)propanamide] | < 500
5 | COCCNCCC(=O)Nc1sc2c(c1-c1nc(-c3ccccn3)cs1)CCNC2 [Compound 110] | 500 to 5000
6 | CC(C)NCCC(=O)Nc1sc2c(c1-c1nc(C(=O)Nc3ccccc3)cs1)CCNC2 [Compound 113, 2-(2-(3-(isopropylamino)propanamido)-4,5,6,7-tetrahydrothieno[2,3-c]pyridin-3-yl)-N-phenylthiazole-4-carboxamide] | > 10000
7 | CC(C)NCCC(=O)Nc1sc2c(c1-c1nc(-c3cnn(C)c3)cs1)CCNC2 [Compound 114] | < 500
8 | CC(C)NCCC(=O)Nc1sc2c(c1-c1nc(-c3cncc(F)c3)cs1)CCNC2 [Compound 115] | < 500
9 | Cc1cn(-c2csc(-c3c(NC(=O)CCNC(C)C)sc4c3CCNC4)n2)cn1 [Compound 117] | 500 to 5000
10 | COc1cncc(-c2csc(-c3c(NC(=O)CCNC(C)C)sc4c3CCNC4)n2)c1 [Compound 119] | < 500
11 | Cc1cncc(-c2csc(-c3c(NC(=O)CCNC(C)C)sc4c3CCNC4)n2)c1 [Compound 122] | < 500
12 | Cc1ccncc1-c1csc(-c2c(NC(=O)CCNC(C)C)sc3c2CCNC3)n1 [Compound 123] | 500 to 5000
13 | CC(C)NCCC(=O)Nc1sc2c(c1-c1nc(C(=O)Nc3cccnc3)cs1)CCNC2 [Compound 124, 2-(2-(3-(Isopropylamino)propanamido)-4,5,6,7-tetrahydrothieno[2,3-c]pyridin-3-yl)-N-(pyridin-3-yl)thiazole-4-carboxamide] | < 500
14 | CC(C)NCCC(=O)Nc1sc2c(c1-c1nc(C3=CCNCC3)cs1)CCNC2 [Compound 126] | < 500
15 | COc1ncccc1-c1csc(-c2c(NC(=O)CCNC(C)C)sc3c2CCNC3)n1 [Compound 127] | < 500
16 | CC(C)NCCC(=O)Nc1sc2c(c1-c1nc(-c3cncnc3)cs1)CCNC2 [Compound 128] | < 500
17 | CC(C)NCCC(=O)Nc1sc2c(c1-c1nc(-c3ccc[nH]c3=O)cs1)CCNC2 [Compound 129] | < 500
18 | CC(C)NCCC(=O)Nc1sc2c(c1-c1nc(C3=CCOCC3)cs1)CCNC2 [Compound 130, N-(3-(4-(3,6-Dihydro-2H-pyran-4-yl)thiazol-2-yl)-4,5,6,7-tetrahydrothieno[2,3-c]pyridin-2-yl)-3-(isopropylamino)propanamide dihydrochloride] | 500 to 5000
